Where two headings read alike, the source gives them in different places.
Tests used:
HepG2 cells = experiment: Cytotoxicity cell viability assay (CellTiter Glo), HepG2; assay type: cell-based; conditions: for toxicity in words, CellTiter Glo, HepG2: HepG2, luminescence readout, up to 1000 μM; for IC50: Homo sapiens, HepG2, 48 hrs, luminescence
Excerpt: Promega Cell Titer-Glo utilizes the ATP dependent conversion of Luciferin to Oxyluciferin by a recombinant Luciferase in order to quantify the number of metabolically active cells in a sample. Quantification is possible because the number of RLU's detected is linearly proportional to the amount of ATP produced by metabolically active cells in culture at the time of lysis. Therefore, the relative cytotoxicity of each compound can be tested by quantifying the amount of ATP present in each microtiter well as compared to control groups. HepG2 and MRC5 were plated at a density of 1500 cells/25 al in well in the assay plate and allowed to settle overnight. 0.1 μL of compounds was then transferred from the source plate, into the cell assay plates. The cells were left to incubate with the compounds for 48 hrs, after which, 25 μL of Promega Cell Titer-Glo was added to each well, and allowed to incubate at room temperature with shaking for 20 minutes. RLU's for each well were then recorded on a BioTek Synergy NEO. DMSO was used as negative control

P. aeruginosa PqsA = P. aeruginosa PqsA (Pseudomonas aeruginosa, UniProt Q9I4X3); experiment: PqsA inhibition, spectrophotometric assay with recombinant PqsA (anthranilyl-CoA formation at 365 nm); assay type: biochemical; conditions: uncompetitive with respect to anthranilate and CoA
Chain of P. aeruginosa PqsA (Q9I4X3 whole entry): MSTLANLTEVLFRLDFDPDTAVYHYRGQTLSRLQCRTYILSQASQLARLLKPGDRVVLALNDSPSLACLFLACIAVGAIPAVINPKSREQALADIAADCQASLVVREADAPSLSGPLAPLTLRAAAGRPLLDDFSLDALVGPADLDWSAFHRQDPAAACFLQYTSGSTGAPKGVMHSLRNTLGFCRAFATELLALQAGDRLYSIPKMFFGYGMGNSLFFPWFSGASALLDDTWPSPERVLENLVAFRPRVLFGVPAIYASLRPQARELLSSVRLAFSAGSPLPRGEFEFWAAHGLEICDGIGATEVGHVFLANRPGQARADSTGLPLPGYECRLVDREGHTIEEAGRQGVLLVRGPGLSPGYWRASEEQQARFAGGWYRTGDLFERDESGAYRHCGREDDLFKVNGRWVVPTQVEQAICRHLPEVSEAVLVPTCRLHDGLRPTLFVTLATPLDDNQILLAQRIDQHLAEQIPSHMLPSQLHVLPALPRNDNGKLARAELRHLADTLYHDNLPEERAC
Experimental: PqsA inhibitors were evaluated using a quantitative spectrophotometric assay with recombinant PqsA, detecting formation of anthranilyl-CoA at 365 nm. See, e.g., Coleman et al. (2008) J. Bacteriol. 190, 1247. […] See, e.g., Morrison et al. Biochim. Biophys. Acta, Enzymol. 185, 269-286; Williams et al. (1979) Methods Enzymol. 63, 437. […] See, e.g., Qiao et al. (2007) J. Am. Chem. Soc. 129, 6350.
Reactions were performed at 37° C. in a 0.5 mL volume in a Varian Cary 100 UV-visible spectrophotometer with Cary WinUV software. Reaction mixtures contained 100 mM HEPES, pH 8.0, 0.2 mM dithiothreitol, 2 mM MgCl2, ˜3.3 μg PqsA protein (˜60 nM final), and depending on which substrate varied, 1 mM ATP (disodium salt), 0.5 mM coenzyme A (tri-lithium salt), 0.5 mM sodium anthranilate, and inhibitor (usually as a DMSO stock solution). Reactions were blanked and preincubated with all components except anthranilate at 37° C. for 1 min, then initiated by addition of anthranilate. Formation of anthraniloyl-CoA was monitored ance at 365 nm (ε=5.5 mM−1 cm−1) for 1 min. Data were analyzed using GraphPad Prism 6 software.

[1] = test system: HHQ and PQS quinolone production in P. aeruginosa strain PA14; experiment: Inhibition of HHQ and PQS quinolone production in P. aeruginosa strain PA14 (LC-MS/MS); assay type: cell-based, Pseudomonas aeruginosa; conditions: for inhibition at 1500 µM / inhibition at 1000 µM: Pseudomonas aeruginosa
Experimental: The production of PQS and HHQ by strain PA14 was performed in triplicate in 14-mL round bottom falcon tubes containing 3-mL cultures in LB medium. Tubes were incubated at 37° C. in an orbital shaker at 225 rpm. Cultures were inoculated with 15-hour culture in LB in order to obtain a starting OD600=0.05, with or without inhibitors added. For PQS and HHQ analysis, a 20 μl aliquot was taken at time points as indicated. Each sample was diluted with 180 μL of methanol containing the internal standard (100 μM of d^4-PQS or d^4-HHQ) and 2% acetic acid. The solution was then vertexed and centrifuged at 13,000 g for 5 minutes, and the supernatant was transferred to a 96-well plates for LC-MS/MS analysis. Bacterial growth was measured by recording OD600 at 20 h to provide the data in FIG. 7A.
Liquid chromatography tandem mass spectrometry (LC-MS/MS) was carried out on an Agilent Technologies 6410 triple quad LC-MS/MS system with autosampler in electrospray ionization (ESI) mode, with an Agilent Zorbax Eclipse XDB-C18 reverse phase column (50×4.6 mm, 5 μm) using a flow rate of 0.5 mL/minute and an isocratic mobile phase of 60% CH3CN in 0.1% aqueous formic acid over 5 minutes. Positive electrospray in MRM mode was employed to quantify PQS and HHQ, using the ion transitions HHQ 244 to 159, d^4-HHQ 248 to 163, PQS 260 to 175, and d^4-PQS 264 to 179; shown in Table E3.
PqsA inhibitors 1-5 were evaluated for their ability to inhibit HHQ and PQS quinolone production in P. aeruginosa strain PA14 (FIG. 6). HHQ and PQS concentrations were determined by LC-MS/MS quantitation relative to deuterated internal standards. 6-Fluoroanthranilate (6FABA), a substrate analogue reported previously to inhibit quinolone production at millimolar concentrations, was used as a positive control. Compounds were initially tested at 1.5 mM concentration, and HHQ and PQS were quantified at 8 and 20 hours, respectively. These time points were selected based on an initial time course study of quinolone production in the absence of inhibitors, with HHQ or PQS production peaking at these respective time points. […] This could be due to differences in cell penetration, stability, and/or target specificity. Finally, because inhibitors of the quinolone quorum sensing pathway should not impact bacterial growth, we confirmed that none of the six inhibitors above inhibited growth over 20 h (FIG. 7A). Encouraged by the ability of anthranilyl-AMS (1) and anthranilyl-AMSN (2) to inhibit HHQ and PQS quinolone production, the activity of these two inhibitors and 6FABA were investigated in greater detail. In untreated controls, HHQ and PQS production peaked at 8 and 20 hours, respectively. Previously reported time course studies have similarly shown that HHQ levels peak at 6-8 hours while PQS levels continue to rise. See, e.g., Deziel et al. (2004) Proc. Natl. Acad. Sci. U.S.A 101, 1339; Kesarwani et al. (2011) PLoS Pathog. 7, e1002192. All three inhibitors were able to decrease quinolone production in a dose- and time-dependent manner (FIG. 2A). […] Such a perturbation might still be sufficient to impact P. aeruginosa virulence in vivo. […] See, e.g., Lesic et al. (2007) PLoS Pathog. 3, e126.

[2] = PA14, 8 h, read-out: inhibition of HHQ production
[3] = PA14, 20 h, read-out: inhibition of PQS production
[4] = PA14, read-out: inhibition of HHQ production
[5] = PA14, read-out: inhibition of PQS production

| Compound | toxicity in words, CellTiter Glo, HepG2 (HepG2 cells) | IC50 (HepG2 cells) [µM] | mode of PqsA inhibition (P. aeruginosa PqsA) | dose- and time-dependent decrease of quinolone production, in words ([1]; FIG. 2A) | inhibition at 1500 µM [1, 2] [%] | inhibition at 1500 µM [1, 3] [%] | inhibition at 1000 µM [1, 4] [%] | inhibition at 1000 µM [1, 5] [%] |
| --- | --- | --- | --- | --- | --- | --- | --- | --- |
| Nc1ccccc1C(=O)NS(=O)(=O)OC[C@H]1O[C@@H](n2cnc3c(N)ncnc32)[C@H](O)[C@@H]1O [anthranilyl-AMS, Anthranilyl-AMS] | significant toxicity in the tested range | 3.1 | competitive inhibitors with respect to ATP | same trend of inhibition, albeit again with lower potency | 67 | 77 | 47 | 40 |
| Nc1ccccc1C(=O)NS(=O)(=O)NC[C@H]1O[C@@H](n2cnc3c(N)ncnc32)[C@H](O)[C@@H]1O [anthranilyl-AMSN, Anthranilyl-AMSN] | significant toxicity in the tested range | 19.2 | competitive inhibitors with respect to ATP |  | 90 | 92 | 84 | 84 |

— patent US10874686B2, “Anthranilyl-adenosinemonosulfamate analogs and uses thereof” (Memorial Sloan-Kettering Cancer Center, priority 2015, dated 2020)
